The subject of this experiment is nude mice, HT29 intrarenal xenograft, tumor weight T/C. Description: NCI In Vivo Anticancer Drug Screen. Data for tumor model HT29;CX-1 Human Adenocarcinoma (MER+) (intrarenal inoculation) in NU/NU Swiss (nude) mice. The following applies: endpoint: mean tumor weight change, higher = larger tumour. In a few lines:
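T/C = treated-group value ÷ vehicle-group value, using tumor size or survival.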

[1] abbreviates: dose: 200.0 mg/kg/injection, schedule: Q01DX010 (sc), vehicle: saline.
The mark [2] stands for this setting: dose: 100.0 mg/kg/injection, schedule: Q04DX004 (sc), vehicle: saline with Tween-80.
Where [3] appears, read: dose: 200.0 mg/kg/injection, schedule: Q04DX004 (sc), vehicle: saline with Tween-80.
Where [4] appears, read: dose: 100.0 mg/kg/injection, schedule: Q01DX010 (sc), vehicle: saline with Tween-80.
Setting [5] is: dose: 400.0 mg/kg/injection, schedule: Q01DX010 (sc), vehicle: saline with Tween-80.
[6] abbreviates: dose: 150.0 mg/kg/injection, schedule: Q04DX004 (sc), vehicle: saline.

These results are taken from PubChem BioAssay AID206 (DTP/NCI, 2004).

“And” between values parts separate entries of the source, which are not always exact repeats. Identical values can stand only once. Records with an inconclusive call do not appear.

On to `CC(C)CCCCCCCCCCCCC(=O)NCC(=O)NC1C(O)C(O)C(Nc2ncnc3nc[nH]c23)OC1C(O)CO` (configuration not stated), for which the T/C is, setting by setting: (dose: 0.75 mg/kg/injection, schedule: Q04DX004 (sc), vehicle: suspension in saline) 85 % of control; (dose: 0.8 mg/kg/injection, schedule: Q01DX010 (sc), vehicle: saline) 21 % of control and 24 % of control; (dose: 1.5 mg/kg/injection, schedule: Q04DX004 (sc), vehicle: suspension in saline) 47 % of control; (dose: 3.0 mg/kg/injection, schedule: Q04DX004 (sc), vehicle: suspension in saline) 10 % of control and 23 % of control; (dose: 6.0 mg/kg/injection, schedule: Q04DX004 (sc), vehicle: suspension in saline) 15 % of control.

`O=C(O)C1(C(=O)O)CCC1.[NH2-].[NH2-].[Pt+2]`: the T/C (dose: 25.0 mg/kg/injection, schedule: Q01DX010 (sc), vehicle: dextrose) was 66 % of control and 91 % of control; the T/C (dose: 50.0 mg/kg/injection, schedule: Q01DX010 (sc), vehicle: dextrose) is 17 % of control.

Regarding `CCC[CH2][Sn]1([CH2]CCC)[O]C2C(CO)OC(n3ccc(N)nc3=O)C2[O]1` (configuration not stated), the T/C is, setting by setting: (dose: 3.0 mg/kg/injection, schedule: Q04DX004 (sc), vehicle: Klucel (hydroxypropylcellulose) (HPC)) 27 % of control; (dose: 6.0 mg/kg/injection, schedule: Q04DX004 (sc), vehicle: Klucel (hydroxypropylcellulose) (HPC)) 85 % of control; (dose: 12.0 mg/kg/injection, schedule: Q04DX004 (sc), vehicle: Klucel (hydroxypropylcellulose) (HPC)) 109 % of control; (dose: 24.0 mg/kg/injection, schedule: Q04DX004 (sc), vehicle: Klucel (hydroxypropylcellulose) (HPC)) 76 % of control.

As to `C1CN2CN3CCN(CN1C3)C2`, the T/C reads like this: (dose: 100.0 mg/kg/injection, schedule: Q01DX010 (sc), vehicle: saline) 93 % of control; under setting [1], 95 % of control.

With `O=NNc1ccccn1`, the T/C is, setting by setting: (dose: 0.13 mg/kg/injection, schedule: Q01DX010 (sc), vehicle: saline) 150 % of control; (dose: 0.25 mg/kg/injection, schedule: Q01DX010 (sc), vehicle: saline) 176 % of control; (dose: 0.5 mg/kg/injection, schedule: Q01DX010 (sc), vehicle: saline) 112 % of control; (dose: 1.0 mg/kg/injection, schedule: Q01DX010 (sc), vehicle: saline) 208 % of control; (dose: 4.0 mg/kg/injection, schedule: Q01DX010 (sc), vehicle: saline) 105 % of control; (dose: 32.0 mg/kg/injection, schedule: Q01DX010 (sc), vehicle: saline) 90 % of control.

Consider `NC(=O)c1[nH]nc(C2OC(CO)C(O)C2O)c1O` (configuration not stated), for which the T/C (dose: 10.0 mg/kg/injection, schedule: Q04DX004 (sc), vehicle: saline) is 73 % of control.

As for `Cc1noc(N)c1N`, the T/C by setting is: (dose: 100.0 mg/kg/injection, schedule: Q04DX004 (sc), vehicle: water) 200 % of control; (dose: 400.0 mg/kg/injection, schedule: Q04DX004 (sc), vehicle: water) 98 % of control; (dose: 800.0 mg/kg/injection, schedule: Q04DX004 (sc), vehicle: water) 200 % of control.

In the case of `CC(=O)OCC1OC(n2ccc(N)nc2=O)C(OC(C)=O)C1OC(C)=O` (configuration not stated), the T/C by setting is: (dose: 300.0 mg/kg/injection, schedule: Q04DX004 (sc), vehicle: suspension in saline) 43 % of control; (dose: 600.0 mg/kg/injection, schedule: Q04DX004 (sc), vehicle: suspension in saline) 50 % of control; (dose: 1200.0 mg/kg/injection, schedule: Q04DX004 (sc), vehicle: suspension in saline) 43 % of control; (dose: 2400.0 mg/kg/injection, schedule: Q04DX004 (sc), vehicle: suspension in saline) 24 % of control.

For the compound `CCCCCCCCCCCCCCCCCC(=O)OCC(=O)OCC(=O)[C@]1(O)Cc2c(O)c3c(c(O)c2[C@@H](OC2CC(N)C(O)C(C)O2)C1)C(=O)c1c(OC)cccc1C3=O` (some centres not stated), the T/C runs as follows: (dose: 3.0 mg/kg/injection, schedule: Q01DX010 (sc), vehicle: water) 56 % of control; (dose: 6.0 mg/kg/injection, schedule: Q01DX010 (sc), vehicle: water) 47 % of control; (dose: 7.5 mg/kg/injection, schedule: Q04DX004 (sc), vehicle: water) 86 % of control; (dose: 12.0 mg/kg/injection, schedule: Q01DX010 (sc), vehicle: water) 59 % of control; (dose: 15.0 mg/kg/injection, schedule: Q04DX004 (sc), vehicle: water) 96 % of control; (dose: 30.0 mg/kg/injection, schedule: Q04DX004 (sc), vehicle: water) 38 % of control.

Turning to `CCCCOCN(COCCCC)C(C)Cc1ccccc1` (configuration not stated), the T/C is, setting by setting: under setting [2], 110 % of control; under setting [3], 178 % of control; (dose: 400.0 mg/kg/injection, schedule: Q04DX004 (sc), vehicle: saline with Tween-80) 98 % of control; (dose: 800.0 mg/kg/injection, schedule: Q04DX004 (sc), vehicle: saline with Tween-80) 97 % of control.

`O=S(=O)(c1ccccc1)N1CN2CCN(C2)C1`: the T/C is 58 % of control (dose: 225.0 mg/kg/injection, schedule: Q04DX004 (sc), vehicle: saline with Tween-80); 75 % of control (dose: 450.0 mg/kg/injection, schedule: Q04DX004 (sc), vehicle: saline with Tween-80); 90 % of control (dose: 900.0 mg/kg/injection, schedule: Q04DX004 (sc), vehicle: saline with Tween-80).

With `CC(=O)Nc1ccc(C(=O)C=O)cc1`, the T/C is 57 % of control (dose: 50.0 mg/kg/injection, schedule: Q01DX010 (sc), vehicle: saline with Tween-80); 88 % of control under setting [4]; 68 % of control (dose: 200.0 mg/kg/injection, schedule: Q01DX010 (sc), vehicle: saline with Tween-80); 26 % of control under setting [5]; 78 % of control (dose: 800.0 mg/kg/injection, schedule: Q01DX010 (sc), vehicle: saline with Tween-80).

Take `C=C1N(C)c2ccccc2C1(C)C`: the T/C was 66 % of control (dose: 50.0 mg/kg/injection, schedule: Q04DX004 (sc), vehicle: saline with Tween-80); 73 % of control under setting [2]; 94 % of control under setting [3].

Turning to `O=C1C(O)=C(c2ccccc2)C(=O)C(O)=C1c1ccccc1`, the T/C (dose: 75.0 mg/kg/injection, schedule: Q04DX004 (sc), vehicle: saline) is 95 % of control and the T/C under setting [6] was 60 % of control.

Regarding `O=c1[nH]cc(F)c(=O)[nH]1`, the T/C is, setting by setting: (dose: 6.25 mg/kg/injection, schedule: Q01DX010 (sc), vehicle: saline) 160 % of control; (dose: 12.5 mg/kg/injection, schedule: Q01DX010 (sc), vehicle: saline) 101 % of control; (dose: 20.0 mg/kg/injection, schedule: Q01DX010 (sc), vehicle: saline) 87 % of control and 107 % of control; (dose: 25.0 mg/kg/injection, schedule: Q01DX010 (sc), vehicle: saline) 86 % of control; (dose: 40.0 mg/kg/injection, schedule: Q01DX010 (sc), vehicle: saline) 46 % of control; (dose: 50.0 mg/kg/injection, schedule: Q04DX004 (ip), vehicle: saline) 34 % of control. The T/C (dose: 75.0 mg/kg/injection, schedule: Q04DX004 (ip), vehicle: saline) is 23 % of control and the T/C (dose: 80.0 mg/kg/injection, schedule: Q01DX010 (sc), vehicle: saline) was 59 % of control.

For the compound `NCCc1ccc(O)c(O)c1`, the T/C under setting [1] is 78 % of control.

Consider `Clc1ccc(CN2COc3c(ccc4cccnc34)C2)cc1Cl`, for which the T/C runs as follows: under setting [4], 73 % of control; under setting [5], 60 % of control and 72 % of control.

As to `c1cc(-c2cc3ccc(C4=NCCN4)cc3[nH]2)ccc1C1=NCCN1`, the T/C reads like this: (dose: 25.0 mg/kg/injection, schedule: Q04DX004 (sc), vehicle: saline) 84 % of control; (dose: 50.0 mg/kg/injection, schedule: Q04DX004 (sc), vehicle: saline) 154 % of control; (dose: 100.0 mg/kg/injection, schedule: Q04DX004 (sc), vehicle: saline) 124 % of control.

Take `NC(CCC(=O)NC(CS)C(=O)NCC(=O)O)C(=O)O` (configuration not stated): the T/C runs as follows: under setting [6], 78 % of control; (dose: 300.0 mg/kg/injection, schedule: Q04DX004 (sc), vehicle: saline) 168 % of control; (dose: 600.0 mg/kg/injection, schedule: Q04DX004 (sc), vehicle: saline) 87 % of control.
